Measured values reported in patent US20110039721A1, “METHOD FOR PREDICTION ABOUT CARCINOGENICITY OF SUBSTANCE IN RODENT” (Chemicals Evaluation and Research Institute, priority 2007, published 2011).

Legend:
[1] = system: mRNA expressed from the genes (A) to (D) in rat liver; test: Behavior of genes (mRNA expression level, oligo-DNA microarray) in rat liver after 28-day oral administration; assay type: in vivo; conditions: mRNA vs vehicle control group; for Behavior of gene caused by administration of chemical substance, Gene No. 4846 / Behavior of gene caused by administration of chemical substance, Gene No. 2026 / Behavior of gene caused by administration of chemical substance, Gene No. 4218 / Behavior of gene caused by administration of chemical substance, Gene No. 6182 / Behavior of gene caused by administration of chemical substance, Gene No. 5600: gene group (A); for Behavior of gene caused by administration of chemical substance, Gene No. 4846: Unigene No. Rn.144554; for Behavior of gene caused by administration of chemical substance, Gene No. 2026 / Behavior of gene caused by administration of chemical substance, Gene No. 4218: Unigene No. Rn.167075; for Behavior of gene caused by administration of chemical substance, Gene No. 6182: Unigene No. Rn.5834; for Behavior of gene caused by administration of chemical substance, Gene No. 5600: Unigene No. Rn.9836; for Behavior of gene caused by administration of chemical substance, Gene No. 1494 / Behavior of gene caused by administration of chemical substance, Gene No. 2045 / Behavior of gene caused by administration of chemical substance, Gene No. 2203: gene group (B); for Behavior of gene caused by administration of chemical substance, Gene No. 1494: Unigene No. Rn.1430; for Behavior of gene caused by administration of chemical substance, Gene No. 2045: Unigene No. Rn.19329; for Behavior of gene caused by administration of chemical substance, Gene No. 2203: Unigene No. Rn.21240; for Behavior of gene caused by administration of chemical substance, Gene No. 533 / Behavior of gene caused by administration of chemical substance, Gene No. 725 / Behavior of gene caused by administration of chemical substance, Gene No. 1163 / Behavior of gene caused by administration of chemical substance, Gene No. 4973 / Behavior of gene caused by administration of chemical substance, Gene No. 4095 / Behavior of gene caused by administration of chemical substance, Gene No. 1334 / Behavior of gene caused by administration of chemical substance, Gene No. 6620 / Behavior of gene caused by administration of chemical substance, Gene No. 6303 / Behavior of gene caused by administration of chemical substance, Gene No. 5878 / Behavior of gene caused by administration of chemical substance, Gene No. 1131 / Behavior of gene caused by administration of chemical substance, Gene No. 1562 / Behavior of gene caused by administration of chemical substance, Gene No. 1741 / Behavior of gene caused by administration of chemical substance, Gene No. 893 / Behavior of gene caused by administration of chemical substance, Gene No. 6026 / Behavior of gene caused by administration of chemical substance, Gene No. 154 / Behavior of gene caused by administration of chemical substance, Gene No. 1993 / Behavior of gene caused by administration of chemical substance, Gene No. 813 / Behavior of gene caused by administration of chemical substance, Gene No. 2494 / Behavior of gene caused by administration of chemical substance, Gene No. 2546 / Behavior of gene caused by administration of chemical substance, Gene No. 3776 / Behavior of gene caused by administration of chemical substance, Gene No. 3929 / Behavior of gene caused by administration of chemical substance, Gene No. 1119 / Behavior of gene caused by administration of chemical substance, Gene No. 6742 / Behavior of gene caused by administration of chemical substance, Gene No. 5634: gene group (C); for Behavior of gene caused by administration of chemical substance, Gene No. 533: Unigene No. Rn.106184; for Behavior of gene caused by administration of chemical substance, Gene No. 725: Unigene No. Rn.108075; for Behavior of gene caused by administration of chemical substance, Gene No. 1163: Unigene No. Rn.11766; for Behavior of gene caused by administration of chemical substance, Gene No. 4973: Unigene No. Rn.118529; for Behavior of gene caused by administration of chemical substance, Gene No. 4095: Unigene No. Rn.119024; for Behavior of gene caused by administration of chemical substance, Gene No. 1334 / Behavior of gene caused by administration of chemical substance, Gene No. 6620: Unigene No. Rn.120914; for Behavior of gene caused by administration of chemical substance, Gene No. 6303: Unigene No. Rn.123063; for Behavior of gene caused by administration of chemical substance, Gene No. 5878: Unigene No. Rn.143213; for Behavior of gene caused by administration of chemical substance, Gene No. 1131: Unigene No. Rn.144946; for Behavior of gene caused by administration of chemical substance, Gene No. 1562: Unigene No. Rn.14744; for Behavior of gene caused by administration of chemical substance, Gene No. 1741: Unigene No. Rn.1647; for Behavior of gene caused by administration of chemical substance, Gene No. 893: Unigene No. Rn.164817; for Behavior of gene caused by administration of chemical substance, Gene No. 6026: Unigene No. Rn.167685; for Behavior of gene caused by administration of chemical substance, Gene No. 154: Unigene No. Rn.185941; for Behavior of gene caused by administration of chemical substance, Gene No. 1993: Unigene No. Rn.18728; for Behavior of gene caused by administration of chemical substance, Gene No. 813: Unigene No. Rn.201760; for Behavior of gene caused by administration of chemical substance, Gene No. 2494: Unigene No. Rn.23969; for Behavior of gene caused by administration of chemical substance, Gene No. 2546: Unigene No. Rn.24561; for Behavior of gene caused by administration of chemical substance, Gene No. 3776: Unigene No. Rn.43232; for Behavior of gene caused by administration of chemical substance, Gene No. 3929: Unigene No. Rn.4620; for Behavior of gene caused by administration of chemical substance, Gene No. 1119: Unigene No. Rn.9757; for Behavior of gene caused by administration of chemical substance, Gene No. 6742: Unigene No. Rn.9779; for Behavior of gene caused by administration of chemical substance, Gene No. 5634: Unigene No. Rn.9862; for Behavior of gene caused by administration of chemical substance, Gene No. 5726: gene group (D), Unigene No. Rn.9939
Outline: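 Oral gavage, once daily × 28 days; male F344 SPF rats, 5 wk, n=4/group; vehicle controls given equal solvent volume. Liver excised day 28, total RNA purified. Significance: ≥1.5× or ≤1/1.5 of vehicle, direction concordant with other carcinogens.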

liver = conditions: in vivo; cited from earlier work
rodent = conditions: in vivo; cited from earlier work

## CCCCC(CC)COC(=O)c1ccccc1C(=O)OCC(CC)CCCC (stereo not shown) [TS002, Di(2-ethylhexyl)phthalate]
[1]
  Behavior of gene caused by administration of chemical substance, Gene No. 4846: −
  Behavior of gene caused by administration of chemical substance, Gene No. 2026: +
  Behavior of gene caused by administration of chemical substance, Gene No. 4218: −
  Behavior of gene caused by administration of chemical substance, Gene No. 6182: −
  Behavior of gene caused by administration of chemical substance, Gene No. 5600: −
  Behavior of gene caused by administration of chemical substance, Gene No. 1494: +
  Behavior of gene caused by administration of chemical substance, Gene No. 2045: +
  Behavior of gene caused by administration of chemical substance, Gene No. 2203: +
  Behavior of gene caused by administration of chemical substance, Gene No. 533: +
  Behavior of gene caused by administration of chemical substance, Gene No. 725: +
  Behavior of gene caused by administration of chemical substance, Gene No. 1163: −
  Behavior of gene caused by administration of chemical substance, Gene No. 4973: +
  Behavior of gene caused by administration of chemical substance, Gene No. 4095: +
  Behavior of gene caused by administration of chemical substance, Gene No. 1334: −
  Behavior of gene caused by administration of chemical substance, Gene No. 6620: −
  Behavior of gene caused by administration of chemical substance, Gene No. 6303: −
  Behavior of gene caused by administration of chemical substance, Gene No. 5878: −
  Behavior of gene caused by administration of chemical substance, Gene No. 1131: +
  Behavior of gene caused by administration of chemical substance, Gene No. 1562: −
  Behavior of gene caused by administration of chemical substance, Gene No. 1741: −
  Behavior of gene caused by administration of chemical substance, Gene No. 893: −
  Behavior of gene caused by administration of chemical substance, Gene No. 6026: −
  Behavior of gene caused by administration of chemical substance, Gene No. 154: −
  Behavior of gene caused by administration of chemical substance, Gene No. 1993: −
  Behavior of gene caused by administration of chemical substance, Gene No. 813: +
  Behavior of gene caused by administration of chemical substance, Gene No. 2494: −
  Behavior of gene caused by administration of chemical substance, Gene No. 2546: −
  Behavior of gene caused by administration of chemical substance, Gene No. 3776: −
  Behavior of gene caused by administration of chemical substance, Gene No. 3929: −
  Behavior of gene caused by administration of chemical substance, Gene No. 1119: −
  Behavior of gene caused by administration of chemical substance, Gene No. 6742: +
  Behavior of gene caused by administration of chemical substance, Gene No. 5634: −
  Behavior of gene caused by administration of chemical substance, Gene No. 5726: −
liver
  Liver carcinogenicity: Cr+
rodent
  Carcinogenicity: C+

## CN(C)c1ccc(N=Nc2ccccc2)cc1 [TS077, 4-Dimethylaminoazobenzene]
[1]
  Behavior of gene caused by administration of chemical substance, Gene No. 4846: −
  Behavior of gene caused by administration of chemical substance, Gene No. 2026: −
  Behavior of gene caused by administration of chemical substance, Gene No. 4218: −
  Behavior of gene caused by administration of chemical substance, Gene No. 6182: +
  Behavior of gene caused by administration of chemical substance, Gene No. 5600: −
  Behavior of gene caused by administration of chemical substance, Gene No. 1494: +
  Behavior of gene caused by administration of chemical substance, Gene No. 2045: +
  Behavior of gene caused by administration of chemical substance, Gene No. 2203: −
  Behavior of gene caused by administration of chemical substance, Gene No. 533: −
  Behavior of gene caused by administration of chemical substance, Gene No. 725: −
  Behavior of gene caused by administration of chemical substance, Gene No. 1163: −
  Behavior of gene caused by administration of chemical substance, Gene No. 4973: −
  Behavior of gene caused by administration of chemical substance, Gene No. 4095: −
  Behavior of gene caused by administration of chemical substance, Gene No. 1334: −
  Behavior of gene caused by administration of chemical substance, Gene No. 6620: −
  Behavior of gene caused by administration of chemical substance, Gene No. 6303: +
  Behavior of gene caused by administration of chemical substance, Gene No. 5878: −
  Behavior of gene caused by administration of chemical substance, Gene No. 1131: −
  Behavior of gene caused by administration of chemical substance, Gene No. 1562: −
  Behavior of gene caused by administration of chemical substance, Gene No. 1741: −
  Behavior of gene caused by administration of chemical substance, Gene No. 893: −
  Behavior of gene caused by administration of chemical substance, Gene No. 6026: +
  Behavior of gene caused by administration of chemical substance, Gene No. 154: −
  Behavior of gene caused by administration of chemical substance, Gene No. 1993: −
  Behavior of gene caused by administration of chemical substance, Gene No. 813: −
  Behavior of gene caused by administration of chemical substance, Gene No. 2494: −
  Behavior of gene caused by administration of chemical substance, Gene No. 2546: −
  Behavior of gene caused by administration of chemical substance, Gene No. 3776: −
  Behavior of gene caused by administration of chemical substance, Gene No. 3929: −
  Behavior of gene caused by administration of chemical substance, Gene No. 1119: −
  Behavior of gene caused by administration of chemical substance, Gene No. 6742: −
  Behavior of gene caused by administration of chemical substance, Gene No. 5634: −
  Behavior of gene caused by administration of chemical substance, Gene No. 5726: +
liver
  Liver carcinogenicity: Cr+
rodent
  Carcinogenicity: C+
